In US12029706B2, “Methods for treating mucopolysaccharidosis” (UNIVERSITY OF MIAMI, priority 2015, dated 2024):
“Also recorded” adds a separate entry of the source.

How the values were obtained:
[1] = system: alpha-L-iduronidase (IDUA); experiment: IDUA enzyme activity in MPS-I patient-derived fibroblast cells (4-Methylumbelliferyl α-L-iduronide substrate); format: cell-based, human; settings: compound 48 hours, vs buffer only control, FIG. 1
Method: (§1) A cell culture experiment was performed in MPS-I patient-derived fibroblast cells. Cells were cultured overnight in a 384-well plate, at a concentration of 20,000 cells per well in advanced DMEM media (Life Technologies) supplemented with 15% FBS (Life technologies), 1× Glutamax (Life Technologies) and beta-mercaptoethanol (1:125000 dilution). The next day, cells were treated with the indicated compound with final concentrations including, but not limited to: 100 μM, 30 μM, 10 μM, 3.3 μM, 1.1 μM, 0.37 μM and 0.12 μM depending on experiment. Treated cells were then incubated for 48 hours at 37° C., 5% CO2, 95% humidity. Cells were then washed with HBSS buffer, and 25 μM of the fluorogenic substrate 4-Methylumbelliferyl α-L-iduronide (free acid) (Santa Cruz Biotechnology) were added in the presence of 0.2M CHNaO2, 0.1% BSA, and 0.1% Triton X. After the addition of the 4-Methylumbelliferyl α-L-iduronide substrate, cells were incubated at 37° C. for 3 to 4 hours, placed at room temperature for 30 minutes to stabilize and alpha-L-iduronidase (IDUA) enzyme activity was measured using the EnVision Multilabel Plate Reader (Perkin Elmer, Inc.). Compounds were purchased from Tocris, Cayman Chemicals or Sigma-Aldrich.

[2] = system: α-L-iduronidase (IDUA) mRNA; experiment: IDUA mRNA expression in MPS I patient cells (normalized to GAPDH); format: cell-based, human; settings: 48 hours
Method: as §1, with “μ[…]” for “μM, 30 μM, 10 μM, 3.3 μM, 1.1 μM, 0.37 μM”, “Sigma-Aldrich. Tests were subsequently conducted to determine whether the increase in activity could in-part be attributed to increases in gene expression. […] Resveratrol and Piceatannol were added to patient cells for 48 hours, in the same conditions mentioned above.” for “Sigma-Aldrich.”

alpha-L-iduronidase = alpha-L-iduronidase activity in plasma of treated mice; format: in vivo; settings: for alpha-L-iduronidase activity in plasma: 25 mg/kg or 50 mg/kg daily, 1 month; for α-iduronidase activity in plasma at 50 mg/kg/day: one month

Row | SMILES | IDUA enzyme activity [1] | IDUA mRNA level ([2]; FIG. 2, listed as resveratrol) | alpha-L-iduronidase activity in plasma (alpha-L-iduronidase; FIG. 3) | alpha-L-iduronidase activity in plasma (alpha-L-iduronidase; FIG. 3, listed as resveratrol) | α-iduronidase activity in plasma at 50 mg/kg/day (alpha-L-iduronidase; FIG. 3) | IDUA mRNA level ([2]; FIG. 2, listed as Piceatannol) | IDUA mRNA level ([2]; FIG. 2, listed as piceatannol) | alpha-L-iduronidase activity in plasma (alpha-L-iduronidase; FIG. 3, listed as piceatannol)
1 | Oc1ccc(/C=C/c2cc(O)cc(O)c2)cc1 [CTI-102, 3,5,4′-trihydroxystilbene] | increase in IDUA activity | increased the mRNA level; also recorded: increase in IDUA mRNA expression | Increases in alpha-L-iduronidase activity | elevation of α-iduronidase activity | substantial boosts in enzyme activity |  |  | 
2 | Oc1cc(O)cc(/C=C/c2ccc(O)c(O)c2)c1 [CTI-101, piceatannol] |  |  | Increases in alpha-L-iduronidase activity |  | substantial boosts in enzyme activity | increase in IDUA mRNA expression | increased the mRNA level | elevation of α-iduronidase activity
